# Assay results as given in PMC5740082, “Identification of a CARM1 Inhibitor with Potent In Vitro and In Vivo Activity in Preclinical Models of Multiple Myeloma” (Scientific Reports, 2017).
# How the values were obtained:
# CARM1 = molecular target: T1, CARM1 (Homo sapiens, UniProt Q86X55); assay: CARM1 histone methyltransferase (biochemical) assay
# T1 construct: FLAG-CARM1 (amino acids 2–585)-His for biochemical studies was expressed in 293 F mammalian cells; made in house; host or cells: 293F mammalian cells
# T1 sequence (Q86X55 2-585 isoform Q86X55-1): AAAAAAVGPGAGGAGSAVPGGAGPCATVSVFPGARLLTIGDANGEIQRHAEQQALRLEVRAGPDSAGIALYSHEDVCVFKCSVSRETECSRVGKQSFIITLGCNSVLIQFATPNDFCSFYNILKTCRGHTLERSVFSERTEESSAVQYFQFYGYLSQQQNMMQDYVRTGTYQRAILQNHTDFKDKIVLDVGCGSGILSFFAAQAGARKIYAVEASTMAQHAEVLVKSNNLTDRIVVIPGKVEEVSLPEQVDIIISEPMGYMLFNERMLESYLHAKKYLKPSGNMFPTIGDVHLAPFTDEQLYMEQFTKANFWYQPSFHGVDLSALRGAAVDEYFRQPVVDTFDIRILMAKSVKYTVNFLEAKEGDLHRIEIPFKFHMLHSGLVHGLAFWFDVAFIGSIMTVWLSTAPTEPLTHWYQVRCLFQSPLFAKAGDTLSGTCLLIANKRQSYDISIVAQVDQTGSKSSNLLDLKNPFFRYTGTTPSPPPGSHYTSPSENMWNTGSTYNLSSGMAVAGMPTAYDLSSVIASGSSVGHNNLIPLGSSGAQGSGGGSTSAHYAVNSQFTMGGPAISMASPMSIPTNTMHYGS
# Experimental: CARM1 activity was measured as previously reported for the histone methyltransferases PRMT1/6/8[65] and PRMT5[58]. Briefly, CARM1 was preincubated with compounds for 30 minutes at room temperature before reactions were initiated. […] The assays were quenched by the addition of 300 μM unlabeled SAM. The quantity of ^3H-labeled peptide produced was measured by Flashplate on a Topcount reader. Further details can be found in the Supplementary Methods.
# Histone methyltransferase assay
# The compounds were preincubated with CARM1 for 30 minutes at room temperature before the reactions were initiated by the addition of substrates. […]
# containing 20 mM bicine, 1 mM tris(2-carbox yethyl)phosphine, 0.005% bovine skin gelatin and 0.002% Tween-20, pH 7.5 and 2% DMSO. The peptide sequence was biotin-aminohexanoate- […]
# eKS AP-amide, where RMe is a monomethylated arginine residue (21st
# Century Biochemicals, Marlboro, MA). After 2 hours, assa ys were quenched b y the addition of 300 μM unlabeled SAM. The reactions were tran sferred to a 384-well Flashplate (Perkin Elmer) and the biotinylated peptides were allowed to bind to the streptavidin surface for at least 1 hour before being washed once with 0.1% Tween 20. The quantit y of 3H-labeled peptide bound to the Flashplate surface was counted on a Topcount reader as counts per minute (cpm). % Inhibition values wer e calculated and IC50 values were fit using the 3 -param eter IC50 equation below:
# YY = BBBBBBBBBBBB + (100 − BBBBBBBBBBBB )HHHHHHHH CCCCCCCCCCHHCCHHCCCCCC where top is fixed at 100 or the maximum inhibition plateau , Y is % inhibition and X is […]
# IC50 vs [peptide] data were fit to the noncom petitive Cheng- Prusoff […]
# The effect of reaction time on compound potency was determined b y meas uring IC50 values from […]
# to a one phase exponential deca y equation. […]
# activity was measured under standard conditions after a 30 minute preincubation.
# IC 50 values were d etermi ned and data wer e anal yz ed using the following eq uation: […]
# [1] = tested on: 55 receptors, ion channels and transporters; assay: ExpresSProfile (CEREP) screen; assay type: binding; settings: 10 μM
# Excerpt: […]. […] […]. […] […].
# RPMI-8226 xenograft = assay: RPMI-8226 multiple myeloma xenograft study; assay type: in vivo, CB-17 SCID mice
# Experimental: For the in vivo efficacy studies, there were 8 mice per dose group and each mouse was inoculated subcutaneously at the right flank. All cells were suspended in a 0.2 mL mixture of base media and Matrigel at 1:1 for tumor development. RPMI-8226 cells were inoculated at 5 × 10^6 cells/mouse and treatment began when the mean tumor sizes reached 120 mm^3 (28 days post-inoculation). CB-17 SCID Mice were assigned into groups using a randomized block design. […] Body weights were measured twice a week for the duration of the study. Tumor size was measured twice weekly in two dimensions using a caliper, and the volume was expressed in cubic millimeters. Animals were euthanized 3 hours post-final dose, with blood and tissues collected for analysis.
compound,measurement,setting,value
CNC[C@@H](O)COc1ccc(Cl)c(-c2nc(-c3c(C)noc3C)c(C)c(N3CC4(CCN(C(=O)OC)CC4)C3)n2)c1 [EZM2302],α value (dual inhibitor study with SAH),CARM1; varying EZM2302 and SAH,0.2
same,"α (noncompetitive fit, substrate competition)",CARM1; varying peptide concentrations,0.2
same,inhibition or stimulation in any of the assays except KOP receptor,[1],≤ 40%
same,Tumor growth inhibition (TGI),"RPMI-8226 xenograft; 37.5 mg/kg BID oral, 21 days",45%
same,increase in unmethylated SmB (SmBme0) in tumor,"RPMI-8226 xenograft; 37.5 mg/kg BID oral, day 21",8 fold
same,maximal inhibition of aDMA levels in tumor,"RPMI-8226 xenograft; 75 mg/kg BID oral, day 21",65%
same,Methylated PABP1 in tumor,"RPMI-8226 xenograft; 75 mg/kg and higher dose groups, day 21",undetectable in most animals
same,increase in unmethylated SmB (SmBme0) in tumor,"RPMI-8226 xenograft; 150 mg/kg BID oral, day 21",14 fold
same,tolerability,"RPMI-8226 xenograft; 150 mg/kg and below BID oral, 21 days",well tolerated
same,Tumor growth inhibition (TGI),"RPMI-8226 xenograft; 300 mg/kg BID oral, 21 days",63%
same,body weight,"RPMI-8226 xenograft; 300 mg/kg BID oral, 21 days",some body weight loss
same,weight loss leading to dosing holidays,"RPMI-8226 xenograft; 6 of 8 animals in the 300 mg/kg group, holidays of 2 to 8 days",greater than 8%
same,day of maximal changes in methylation in tumor tissue,"RPMI-8226 xenograft; 150 and 300 mg/kg BID, sampled after 2, 4 and 8 days",4 days
